Assay results taken from ChEMBL document CHEMBL1143235, “1-Hydroxy-2-pyridinone-based MMP inhibitors: synthesis and biological evaluation for the treatment of ischemic stroke” (Bioorg Med Chem Lett, 2008).
Calls of active or inactive are those of the source. The calls are words filed in the database; no cut-off is given here.

How the values were obtained:
[1] = molecular target: T1, Matrix metalloproteinase-9 (Homo sapiens, UniProt P14780); assay: Inhibition of MMP9 at 100 uM
[2] = molecular target: T2, Stromelysin-1 (Homo sapiens, UniProt P08254); assay: Inhibition of MMP3 at 100 uM
Target sequence in this assay (P08254 100-477 limits assumed): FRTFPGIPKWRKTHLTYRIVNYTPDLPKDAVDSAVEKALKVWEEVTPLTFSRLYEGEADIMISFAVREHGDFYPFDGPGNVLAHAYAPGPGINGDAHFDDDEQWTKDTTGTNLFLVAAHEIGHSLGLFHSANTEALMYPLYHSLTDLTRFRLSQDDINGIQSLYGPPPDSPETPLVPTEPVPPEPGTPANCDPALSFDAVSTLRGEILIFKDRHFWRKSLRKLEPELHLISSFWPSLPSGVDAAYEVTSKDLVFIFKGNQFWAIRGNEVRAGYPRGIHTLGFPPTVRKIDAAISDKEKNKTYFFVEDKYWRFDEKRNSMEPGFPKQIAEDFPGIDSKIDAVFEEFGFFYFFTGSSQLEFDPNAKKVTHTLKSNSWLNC

[3] = molecular target: T3, 72 kDa type IV collagenase (Homo sapiens, UniProt P08253); details: 100 uM
Target sequence in this assay (P08253 110-660 limits assumed): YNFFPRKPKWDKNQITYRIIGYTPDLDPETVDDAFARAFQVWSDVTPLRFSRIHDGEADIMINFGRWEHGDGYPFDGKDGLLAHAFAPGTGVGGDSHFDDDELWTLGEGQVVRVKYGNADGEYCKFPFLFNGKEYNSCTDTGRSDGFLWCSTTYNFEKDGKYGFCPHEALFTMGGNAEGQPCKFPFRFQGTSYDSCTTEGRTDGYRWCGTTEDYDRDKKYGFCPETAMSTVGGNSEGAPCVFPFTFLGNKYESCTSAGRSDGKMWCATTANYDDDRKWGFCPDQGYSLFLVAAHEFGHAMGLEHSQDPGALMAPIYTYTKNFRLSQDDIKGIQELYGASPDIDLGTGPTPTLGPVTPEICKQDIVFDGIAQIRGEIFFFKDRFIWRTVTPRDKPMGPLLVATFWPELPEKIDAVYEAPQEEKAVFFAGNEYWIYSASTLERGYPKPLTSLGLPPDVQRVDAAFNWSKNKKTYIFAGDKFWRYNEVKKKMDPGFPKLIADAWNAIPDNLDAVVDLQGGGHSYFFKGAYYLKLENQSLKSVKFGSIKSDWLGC
Description: Inhibition of MMP2 at 100 uM

[4] = molecular target: T1, Matrix metalloproteinase-9; assay: Inhibition of MMP9
[5] = molecular target: T3, 72 kDa type IV collagenase; assay: Inhibition of MMP2
Target sequence in this assay (P08253 whole entry): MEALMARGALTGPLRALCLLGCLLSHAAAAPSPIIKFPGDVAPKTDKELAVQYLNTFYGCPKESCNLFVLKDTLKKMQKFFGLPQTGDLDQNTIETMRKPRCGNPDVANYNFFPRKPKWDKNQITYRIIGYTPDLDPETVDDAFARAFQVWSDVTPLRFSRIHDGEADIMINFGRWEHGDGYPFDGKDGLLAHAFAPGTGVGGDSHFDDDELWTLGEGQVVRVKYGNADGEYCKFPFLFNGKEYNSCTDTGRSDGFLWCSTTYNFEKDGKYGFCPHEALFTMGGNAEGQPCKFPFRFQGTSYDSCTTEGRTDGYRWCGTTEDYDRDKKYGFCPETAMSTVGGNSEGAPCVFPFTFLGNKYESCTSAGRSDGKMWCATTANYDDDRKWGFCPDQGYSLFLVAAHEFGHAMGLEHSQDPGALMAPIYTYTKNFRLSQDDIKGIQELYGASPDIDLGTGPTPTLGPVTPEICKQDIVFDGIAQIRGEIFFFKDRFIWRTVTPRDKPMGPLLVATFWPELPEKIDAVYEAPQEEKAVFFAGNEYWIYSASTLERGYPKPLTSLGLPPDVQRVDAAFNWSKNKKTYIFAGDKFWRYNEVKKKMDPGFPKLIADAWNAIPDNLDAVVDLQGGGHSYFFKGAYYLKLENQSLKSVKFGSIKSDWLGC

[6] = molecular target: Collagenase 3 (Homo sapiens, UniProt P45452); assay: Inhibition of MMP13
[7] = molecular target: T2, Stromelysin-1; assay: Inhibition of MMP3
Target sequence in this assay (P08254 whole entry): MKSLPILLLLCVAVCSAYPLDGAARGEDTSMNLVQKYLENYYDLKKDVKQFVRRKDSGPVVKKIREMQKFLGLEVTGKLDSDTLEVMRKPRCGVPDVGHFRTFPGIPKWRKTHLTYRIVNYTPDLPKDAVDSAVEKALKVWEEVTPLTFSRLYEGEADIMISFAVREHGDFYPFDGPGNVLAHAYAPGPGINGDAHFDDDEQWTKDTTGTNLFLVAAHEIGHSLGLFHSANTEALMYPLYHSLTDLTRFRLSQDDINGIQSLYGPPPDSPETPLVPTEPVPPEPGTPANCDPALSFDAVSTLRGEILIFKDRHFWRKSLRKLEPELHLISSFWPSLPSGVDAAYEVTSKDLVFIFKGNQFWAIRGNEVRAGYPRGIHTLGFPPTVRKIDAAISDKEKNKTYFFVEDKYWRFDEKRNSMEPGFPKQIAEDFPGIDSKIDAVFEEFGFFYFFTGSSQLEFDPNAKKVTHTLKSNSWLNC

[8] = molecular target: T4, Interstitial collagenase (Homo sapiens, UniProt P03956); assay: Inhibition of MMP1
T4 sequence (P03956 whole entry): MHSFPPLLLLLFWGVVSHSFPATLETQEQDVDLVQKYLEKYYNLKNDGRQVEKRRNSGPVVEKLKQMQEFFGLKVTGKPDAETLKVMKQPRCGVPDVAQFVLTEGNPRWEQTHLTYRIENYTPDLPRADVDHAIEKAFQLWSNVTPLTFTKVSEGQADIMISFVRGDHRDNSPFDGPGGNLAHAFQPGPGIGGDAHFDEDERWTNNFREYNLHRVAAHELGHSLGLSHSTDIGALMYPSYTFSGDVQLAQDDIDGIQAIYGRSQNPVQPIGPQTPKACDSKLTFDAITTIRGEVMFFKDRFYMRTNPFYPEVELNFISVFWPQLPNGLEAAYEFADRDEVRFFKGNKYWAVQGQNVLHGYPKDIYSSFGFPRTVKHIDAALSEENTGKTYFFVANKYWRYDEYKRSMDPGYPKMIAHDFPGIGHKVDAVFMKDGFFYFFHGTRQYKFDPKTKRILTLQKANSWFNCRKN

[9] = test system: Mus musculus; assay: Reduction of focal ischemia-induced brain edema in C57 Black/6 mouse at 6 mg/kg, iv after 2 hrs by wet/dry method; format: functional, organism-based; design: dose 6 mg/kg
[10] = test system: Rattus norvegicus; assay: AUC in rat at 2 mg/kg, iv; format: ADME, organism-based, Plasma; design: dose 2 mg/kg, route intravenous; details: in vivo
[11] = Apparent elimination half life in rat at 2 mg/kg, iv; format: ADME, organism-based; design: dose 2 mg/kg, route intravenous; details: in vivo
[12] = Drug level in rat at 2 mg/kg, iv; format: ADME, organism-based; design: dose 2 mg/kg, route intravenous; details: in vivo
[13] = Plasma concentration in mouse at 10 mg/kg, po after 1 hr
[14] = Volume of distribution at steady state in rat at 2 mg/kg, iv; format: ADME, organism-based; design: dose 2 mg/kg, route intravenous; details: in vivo, read-out: Vdss

T1 sequence (P14780 whole entry): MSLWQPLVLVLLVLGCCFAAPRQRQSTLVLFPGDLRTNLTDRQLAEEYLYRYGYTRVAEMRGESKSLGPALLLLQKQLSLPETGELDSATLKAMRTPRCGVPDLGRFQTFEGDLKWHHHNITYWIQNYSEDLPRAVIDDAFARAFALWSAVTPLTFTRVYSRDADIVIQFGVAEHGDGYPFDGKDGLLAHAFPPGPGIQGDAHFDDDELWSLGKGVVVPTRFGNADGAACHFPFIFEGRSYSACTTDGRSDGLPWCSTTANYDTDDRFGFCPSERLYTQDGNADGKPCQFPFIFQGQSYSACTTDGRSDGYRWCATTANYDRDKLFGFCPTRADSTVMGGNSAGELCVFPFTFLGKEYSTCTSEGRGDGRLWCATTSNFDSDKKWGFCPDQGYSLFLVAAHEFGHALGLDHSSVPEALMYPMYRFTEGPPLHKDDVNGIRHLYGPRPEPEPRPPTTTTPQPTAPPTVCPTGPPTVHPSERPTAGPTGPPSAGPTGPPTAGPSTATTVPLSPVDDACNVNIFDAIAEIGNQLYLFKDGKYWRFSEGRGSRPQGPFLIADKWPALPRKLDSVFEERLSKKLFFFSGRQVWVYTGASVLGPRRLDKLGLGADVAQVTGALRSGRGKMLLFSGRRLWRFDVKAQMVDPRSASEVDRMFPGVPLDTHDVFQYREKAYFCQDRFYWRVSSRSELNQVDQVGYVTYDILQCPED

SMILES | IC50 [4] | IC50 [5] | IC50 [6] | IC50 [7] | IC50 [8] | other results
Cc1cc(=O)c(O)c(C(=O)NCc2ccc(-c3ccccc3)cc2)o1 |  |  |  |  |  | inhibition [1]: 34%; inhibition [2]: 34%; inhibition [3]: 34%
COc1ccc(Oc2ccc(S(=O)(=O)N(C)c3cccn(O)c3=O)cc2)cc1 |  |  | 6.8 nM | 79.1 nM | > 1000 nM | 
CCN(c1cccn(O)c1=O)S(=O)(=O)c1ccc(Oc2ccccc2)cc1 | 3.6 nM | 6.5 nM |  |  |  | 
O=c1c(N(CCN2CCOCC2)S(=O)(=O)c2ccc(Oc3ccc(Cl)cc3)cc2)cccn1O |  |  | 4 nM | 62.9 nM | > 1000 nM | 
CC(C)N(c1cccn(O)c1=O)S(=O)(=O)c1ccc(Oc2ccccc2)cc1 | 57.5 nM | 41 nM |  |  |  | 
CN(c1cccn(O)c1=O)S(=O)(=O)c1ccc(Oc2ccc(Cl)cc2)cc1 | 2.4 nM | 5 nM | 2.5 nM | 56.5 nM | > 1000 nM | Activity [9]: Active; AUC [10]: 179 µg·h/mL; half-life [11]: 47 h; C0 [12]: 8.4 µM; concentration at 1 h [13]: 34 µM; Vd [14]: 1.75 L/kg

Continued, in another order:

IC50 [4] | IC50 [5] | SMILES | IC50 [6] | IC50 [7] | IC50 [8] | other results
4.4 nM | 6.1 nM | Cc1ccc(Oc2ccc(S(=O)(=O)N(C)c3cccn(O)c3=O)cc2)cc1 |  |  |  | 
5 nM | 8.3 nM | CN(c1cccn(O)c1=O)S(=O)(=O)c1ccc(Oc2ccccc2)cc1 |  |  |  | 
1.8 nM |  | CN(c1cccn(O)c1=O)S(=O)(=O)c1ccc(Oc2ccc(OC(F)(F)F)cc2)cc1 |  |  |  | 
